Results reported in patent US20060069132A1, “Azolecarboxamide herbicides” (priority 2004, published 2006).

Experiments:
barnyardgrass [1] = experiment: Test B pre-/postemergence herbicide test; format: in vivo, Echinochloa crus-galli; conditions: for Barnyardgrass plant response rating: postemergence, visual rating, scale 0 (no effect) to 100 (complete control)
In short: (§1)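 Formulation: non-phytotoxic solvent mix with surfactant. Timing: preemergence on seed and postemergence on 2–18 cm plants, applied concurrently. Readout after 13–15 d greenhouse: visual 0–100 control rating against controls.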

Surinam grass = experiment: Test B pre-/postemergence herbicide test; format: in vivo, Urochloa decumbens; conditions: for Surinam Grass plant response rating: postemergence, visual rating, scale 0 (no effect) to 100 (complete control)
In short: (§2)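 Visual rating, 0 (no effect) to 100 (complete control), versus untreated controls after 13–15 d in greenhouse. Pre- and postemergence applications (postemergence plants 2–18 cm, 1–4 leaves); flooded paddy arm at 2-leaf stage. Compounds in non-phytotoxic solvent plus surfactant.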

cocklebur = experiment: Test B pre-/postemergence herbicide test; format: in vivo, Xanthium strumarium; conditions: for Cocklebur plant response rating: postemergence, visual rating, scale 0 (no effect) to 100 (complete control)
In short: as §1

corn = experiment: Test B pre-/postemergence herbicide test; format: in vivo, Zea mays; conditions: for Corn plant response rating: postemergence, visual rating, scale 0 (no effect) to 100 (complete control)
In short: as §2

large crabgrass = experiment: Test B pre-/postemergence herbicide test; format: in vivo, Digitaria sanguinalis; conditions: for Crabgrass, Large plant response rating: postemergence, visual rating, scale 0 (no effect) to 100 (complete control)
In short: as §2

giant foxtail = experiment: Test B pre-/postemergence herbicide test; format: in vivo, Setaria faberi; conditions: for Foxtail, Giant plant response rating: postemergence, visual rating, scale 0 (no effect) to 100 (complete control)
In short: as §2

lambsquarters = experiment: Test B pre-/postemergence herbicide test; format: in vivo, Chenopodium album
In short: as §2

morningglory = experiment: Test B pre-/postemergence herbicide test; format: in vivo, Ipomoea coccinea; conditions: for Morningglory plant response rating: postemergence, visual rating, scale 0 (no effect) to 100 (complete control)
In short: as §1

pigweed = experiment: Test B pre-/postemergence herbicide test; format: in vivo, Amaranthus retroflexus; conditions: for Pigweed plant response rating: postemergence, visual rating, scale 0 (no effect) to 100 (complete control)
In short: as §2

rice [2] = experiment: Test B pre-/postemergence herbicide test; format: in vivo, Oryza sativa; conditions: preemergence
In short: as §2

velvetleaf = experiment: Test B pre-/postemergence herbicide test; format: in vivo, Abutilon theophrasti; conditions: for Velvetleaf plant response rating: postemergence, visual rating, scale 0 (no effect) to 100 (complete control)
In short: as §2

blackgrass = experiment: Test B postemergence herbicide test; format: in vivo, Alopecurus myosuroides; conditions: postemergence, visual rating, scale 0 (no effect) to 100 (complete control)
In short: (§3)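 Scale 0–100: zero equals no visible effect, 100 complete control, judged by eye relative to controls. Timing: 13 to 15 days in greenhouse post-treatment. Growth stage at spraying: two leaves (paddy) or one to four leaves, 2–18 cm (postemergence).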

wheat = experiment: Test B postemergence herbicide test; format: in vivo, Triticum aestivum; set-up: key to Wheat plant response rating: 0 = no effect, 100 = complete control; conditions: postemergence, visual rating, scale 0 (no effect) to 100 (complete control)
In short: (§4)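 Read-out: visual comparison with controls, scored 0 to 100, where 100 means complete control and 0 no effect. Formulated chemicals were applied postemergence to plants 2–18 cm tall (1- to 4-leaf), or to flooded-paddy plants at the 2-leaf stage, then held 13 to 15 days under glass.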

wild oat = experiment: Test B postemergence herbicide test; format: in vivo, Avena fatua; conditions: postemergence, visual rating, scale 0 (no effect) to 100 (complete control)
In short: as §4

rice [3] = experiment: Test B flooded paddy test; format: in vivo, Oryza sativa; conditions: 1000 g ai/ha, visual rating, scale 0 to 100 (0 no effect, 100 complete control), 13 to 15 days
In short: as §4

[4] = tested on: small flower umbrella sedge; experiment: Test B flooded paddy test; format: in vivo, Cyperus difformis; conditions: 1000 g ai/ha, visual rating, scale 0 to 100 (0 no effect, 100 complete control), 13 to 15 days
In short: as §3

ducksalad [5] = experiment: Test B flooded paddy test; format: in vivo, Heteranthera limosa; conditions: 1000 g ai/ha, visual rating, scale 0 to 100 (0 no effect, 100 complete control), 13 to 15 days
In short: as §3

barnyardgrass [6] = experiment: Test B flooded paddy test; format: in vivo, Echinochloa crus-galli; conditions: 1000 g ai/ha, visual rating, scale 0 to 100 (0 no effect, 100 complete control), 13 to 15 days
In short: as §3

rice [7] = experiment: Test C flooded paddy test; format: in vivo, Oryza sativa
In short: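 Injury scored visually against controls on a 0 (no effect) to 100 (complete control) scale, 12 to 14 days after treatment in greenhouse. Flooded paddy plants treated at 2-leaf stage; postemergence plants at 1- to 4-leaf stage, 2 to 18 cm tall.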

[8] = tested on: smallflower umbrella sedge; experiment: Test C flooded paddy test; format: in vivo, Cyperus difformis
ducksalad [9] = experiment: Test C flooded paddy test; format: in vivo, Heteranthera limosa
barnyardgrass [10] = experiment: Test C flooded paddy test; format: in vivo, Echinochloa crus-galli
In short: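 Postemergence sprays were applied to plants 2 to 18 cm tall (1- to 4-leaf stage); in the flooded paddy test, barnyardgrass was grown to the 2-leaf stage. After 12 to 14 days in a greenhouse, injury was visually rated against untreated controls on a 0–100 scale (100 = complete control).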

[11] = 125 g ai/ha, 0 = no effect, 100 = complete control, preemergence
[12] = 500 g ai/ha, visual rating 0-100, 0 no effect, 100 complete control, preemergence
[13] = 62 g ai/ha, scale 0 to 100 (0 no effect, 100 complete control)
[14] = 125 g ai/ha, scale 0 to 100 (0 no effect, 100 complete control)
[15] = 250 g ai/ha, scale of 0 to 100, 0 is no effect, 100 is complete control
[16] = 500 g ai/ha, visual rating after 12 to 14 days, scale 0 to 100 (0 no effect, 100 complete control)

## CCc1nn(C(C)(C)C)cc1C(=O)Nc1cc(C(=O)NC)ccc1F [Compound 194]
Barnyardgrass [1]; [11]
  Barnyardgrass plant response rating (0 to 100 scale): 0
Barnyardgrass [1]; [12]
  Plant response rating, Barnyardgrass: 90
Barnyardgrass [1]; 125 g ai/ha
  Barnyardgrass plant response rating: 0
Barnyardgrass [1]; 500 g ai/ha
  Barnyardgrass plant response rating: 10
Surinam grass; [11]
  Surinam Grass plant response rating (0 to 100 scale): 0
Surinam grass; [12]
  Plant response rating, Surinam Grass: 60
Surinam grass; 125 g ai/ha
  Surinam Grass plant response rating: 10
Surinam grass; 500 g ai/ha
  Surinam Grass plant response rating: 10
cocklebur; [11]
  Cocklebur plant response rating (0 to 100 scale): 0
cocklebur; [12]
  Plant response rating, Cocklebur: 20
cocklebur; 125 g ai/ha
  Cocklebur plant response rating: 10
cocklebur; 500 g ai/ha
  Cocklebur plant response rating: 10
corn; [11]
  Corn plant response rating (0 to 100 scale): 0
corn; [12]
  Plant response rating, Corn: 50
corn; 125 g ai/ha
  Corn plant response rating: 0
corn; 500 g ai/ha
  Corn plant response rating: 0
Large crabgrass; [11]
  Crabgrass, Large plant response rating (0 to 100 scale): 100
Large crabgrass; [12]
  Plant response rating, Crabgrass, Large: 100
Large crabgrass; 125 g ai/ha
  Crabgrass, Large plant response rating: 10
Large crabgrass; 500 g ai/ha
  Crabgrass, Large plant response rating: 10
Giant foxtail; [11]
  Foxtail, Giant plant response rating (0 to 100 scale): 10
Giant foxtail; [12]
  Plant response rating, Foxtail, Giant: 80
Giant foxtail; 125 g ai/ha
  Foxtail, Giant plant response rating: 0
Giant foxtail; 500 g ai/ha
  Foxtail, Giant plant response rating: 0
lambsquarters; [11]
  Lambsquarters plant response rating (0 to 100 scale): 30
lambsquarters; postemergence, 500 g ai/ha, visual rating, scale 0 (no effect) to 100 (complete control)
  Lambsquarters plant response rating: 30
morningglory; [11]
  Morningglory plant response rating (0 to 100 scale): 20
morningglory; [12]
  Plant response rating, Morningglory: 50
morningglory; 125 g ai/ha
  Morningglory plant response rating: 10
morningglory; 500 g ai/ha
  Morningglory plant response rating: 10
pigweed; [11]
  Pigweed plant response rating (0 to 100 scale): 0
pigweed; [12]
  Plant response rating, Pigweed: 100
pigweed; 125 g ai/ha
  Pigweed plant response rating: 20
pigweed; 500 g ai/ha
  Pigweed plant response rating: 30
Rice [2]; 125 g ai/ha, 0 = no effect, 100 = complete control
  Rice plant response rating (0 to 100 scale): 0
Rice [2]; 500 g ai/ha, visual rating 0-100, 0 no effect, 100 complete control
  Plant response rating, Rice: 70
velvetleaf; [11]
  Velvetleaf plant response rating (0 to 100 scale): 20
velvetleaf; [12]
  Plant response rating, Velvetleaf: 60
velvetleaf; 125 g ai/ha
  Velvetleaf plant response rating: 10
velvetleaf; 500 g ai/ha
  Velvetleaf plant response rating: 10
blackgrass; 125 g ai/ha
  Blackgrass plant response rating: 0
blackgrass; 500 g ai/ha
  Blackgrass plant response rating: 0
wheat; 125 g ai/ha
  Wheat plant response rating: 0
wheat; 500 g ai/ha
  Wheat plant response rating: 0
Wild oat; 125 g ai/ha
  Oat, Wild plant response rating: 0
Wild oat; 500 g ai/ha
  Oat, Wild plant response rating: 0
Rice [3]
  Rice plant response rating: 60
[4]
  Sedge, Umbrella plant response rating: 80
Ducksalad [5]
  Ducksalad plant response rating: 90
Barnyardgrass [6]
  Barnyardgrass plant response rating: 50
Rice [7]; [13]
  Rice plant response rating: 0
Rice [7]; [14]
  Rice plant response rating: 25
Rice [7]; [15]
  Rice plant response rating: 25
Rice [7]; [16]
  Plant response rating, Rice: 45
[8]; [13]
  Sedge, Umbrella plant response rating: 0
[8]; [14]
  Sedge, Umbrella plant response rating: 0
[8]; [15]
  Sedge, Umbrella plant response rating: 35
[8]; [16]
  Plant response rating, Sedge, Umbrella: 75
Ducksalad [9]; [13]
  Ducksalad plant response rating: 0
Ducksalad [9]; [14]
  Ducksalad plant response rating: 0
Ducksalad [9]; [15]
  Ducksalad plant response rating: 0
Ducksalad [9]; [16]
  Plant response rating, Ducksalad: 40
Barnyardgrass [10]; [13]
  Barnyardgrass plant response rating: 0
Barnyardgrass [10]; [14]
  Barnyardgrass plant response rating: 0
Barnyardgrass [10]; [15]
  Barnyardgrass plant response rating: 0
Barnyardgrass [10]; [16]
  Plant response rating, Barnyardgrass: 25
